# Experimental data taken from article PMC9490316, “Covalent fragment inhibits intramembrane proteolysis” (Frontiers in Molecular Biosciences, 2022).
# Target: T1, transmembrane domain of amyloid precursor protein (APPTM) (Homo sapiens, UniProt P05067)
# T1 construct: gene APP; APPTM, transmembrane domain of amyloid precursor protein (5,590 Da, 15N labeled, in DPC micelles)
# Experiment: 2D 1H-15N TROSY NMR and MALDI-TOF-MS (covalent adducts, up to six additions); the IC50 is from a gel-based assay of APPTM cleavage by PSH
# Type: biochemical
# T1 sequence (P05067 686-726 limits assumed): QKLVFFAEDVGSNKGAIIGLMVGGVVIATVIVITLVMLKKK
compound,measurement,value
Oc1ccc(O)c2c1C1CCC2C1 [6H8],IC50,2 to 4 µM
